From paper PMC12086609, “Characterization of the Structure and Function of the Photosynthetic RC–LH1 Core Supercomplex From Rhodospirillum rubrum” (Physiologia Plantarum, 2025)

What was measured:
[1] = biological target: T1, Rsp. rubrum RC–LH1 supercomplex (RC–LH1 monomer) (Rhodospirillum rubrum, UniProt P02947+P10717+Q2RQ23+Q2RQ26); test: cytochrome c2 oxidation at […] nm under […] nm light; assay type: biochemical; conditions: QB site of RC (L/M); 0-40 μM UQ2, 15 nM RC–LH1, 30 μM reduced horse-heart cytochrome c, HEPES pH 8.0, 0.01% β-DDM; apparent Km not determined
T1 construct: gene pufL; native purification from phototrophic cells (beta-DDM, sucrose gradient); closed ring of 16 alpha-beta pairs around RC L, M, H; modelled alpha 45 and beta 44 residues

[2] = biological target: T2, Rba. sphaeroides WT RC–LH1 monomer (Cereibacter sphaeroides, UniProt P0C0Y8+P0C0Y9); test: cytochrome c2 oxidation at […] nm under […] nm light; assay type: biochemical; conditions: QB site of RC (L/M); 0-40 μM UQ2, 15 nM RC–LH1, 30 μM reduced horse-heart cytochrome c, HEPES pH 8.0, 0.01% β-DDM; apparent Km not determined
T2 construct: gene pufL; native RC–LH1 monomer with open LH1 ring (contains PufX); with Reaction center protein H chain; Light-harvesting protein B-875 alpha chain (LH1 alpha); Light-harvesting protein B-875 beta chain (LH1 beta); Intrinsic membrane protein PufX

[3] = biological target: T1, Rsp. rubrum RC–LH1 supercomplex (RC–LH1 monomer); test: cryo-EM structure, […] Å; assay type: binding; conditions: native carotenoid of LH1, one per alpha-beta heterodimer (16)

T1 sequence (P10717 2-276): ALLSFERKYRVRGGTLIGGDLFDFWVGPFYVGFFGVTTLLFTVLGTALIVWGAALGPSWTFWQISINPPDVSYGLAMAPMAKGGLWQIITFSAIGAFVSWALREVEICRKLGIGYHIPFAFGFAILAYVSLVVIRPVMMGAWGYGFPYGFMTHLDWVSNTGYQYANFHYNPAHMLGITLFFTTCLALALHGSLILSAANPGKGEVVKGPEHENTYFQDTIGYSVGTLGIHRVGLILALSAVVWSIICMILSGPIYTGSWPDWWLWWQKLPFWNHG
T1 sequence (Q2RQ26 1-306): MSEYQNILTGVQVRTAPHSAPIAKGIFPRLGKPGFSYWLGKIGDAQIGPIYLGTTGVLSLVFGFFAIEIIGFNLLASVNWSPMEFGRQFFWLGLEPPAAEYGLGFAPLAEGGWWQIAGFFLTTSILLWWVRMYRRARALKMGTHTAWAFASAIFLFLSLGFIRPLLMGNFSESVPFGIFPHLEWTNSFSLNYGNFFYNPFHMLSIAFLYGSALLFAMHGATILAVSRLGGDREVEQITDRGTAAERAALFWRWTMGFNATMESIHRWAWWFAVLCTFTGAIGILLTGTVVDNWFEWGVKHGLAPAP
T1 sequence (Q2RWS4 1-257 partner): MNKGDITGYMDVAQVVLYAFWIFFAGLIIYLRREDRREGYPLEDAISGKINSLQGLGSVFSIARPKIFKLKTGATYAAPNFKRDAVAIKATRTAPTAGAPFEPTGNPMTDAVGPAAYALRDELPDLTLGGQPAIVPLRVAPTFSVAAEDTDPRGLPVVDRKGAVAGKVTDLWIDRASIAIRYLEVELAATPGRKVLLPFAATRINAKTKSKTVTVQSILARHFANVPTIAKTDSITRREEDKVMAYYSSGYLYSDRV
T1 sequence (P02947 1-52): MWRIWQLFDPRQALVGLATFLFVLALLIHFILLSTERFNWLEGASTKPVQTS
T1 sequence (Q2RQ23 3-56): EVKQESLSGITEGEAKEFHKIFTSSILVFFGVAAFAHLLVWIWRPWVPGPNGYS

## COC1=C(OC)C(=O)C(C/C=C(\C)CCC=C(C)C)=C(C)C1=O [ubiquinone‐2]
[1]
  cytochrome c oxidation at 550 nm under 880 nm light: maximum quinone/quinol exchange rate for Rsp. rubrum RC–LH1 monomer
[2]
  cytochrome c2 oxidation at 550 nm under 880 nm light: open RC–LH1 monomer of Rba. sphaeroides WT

## COC(C)(C)C/C=C/C(C)=C/C=C/C(C)=C/C=C/C(C)=C/C=C/C=C(C)/C=C/C=C(C)/C=C/C=C(C)/C=C/CC(C)(C)OC [spirilloxanthin]
[3]
  cryo-EM structure, 3.0 Å: The LH1 α‐polypeptide is light blue sky, the β‐polypeptide is pink, spirilloxanthin is green
